Literature values in patent EP1227812B1 (SCHERING CORPORATION, priority 1999, dated 2001).

Settings: eight subjects tested, topical azatadine

In the case of `CN1CCC(=C2c3ccccc3CCc3cccnc32)CC1` [Azatadine, azatadine], the drowsiness is given as “drowsiness in one of the eight subjects tested”.
